Test results taken from patent US20230158032A1, “PHARMACEUTICAL COMBINATION FOR THE TREATMENT OF MYELOPROLIFERATIVE NEOPLASMS” (Universitätsklinikum Jena, priority 2020, published 2023).
pIC50: −log10 of the molar value. Entries after “also recorded” stand apart in the source; their conditions may differ. Read-outs that look alike come from different tables or passages of the source.

How the values were obtained:
Type in all cases: cell-based
murine Jak2 V617F cells = assay: MTS growth and proliferation assay of splicing factor inhibitors with and without Ruxolitinib; conditions: for pIC50: read-out: IC50, concentration of functional inhibitor needed to inhibit cell growth of 50%; for effect between the functional inhibitor and Ruxolitinib on cell growth inhibition: combination with Ruxolitinib (0.5 μM)
Method: Growth and proliferation was measured by MTS assay. Data shown are representative of 2 independent experiments with 8 technical replicates, mean±SD. The used splicing factor inhibitors are: a) GSK3326595, a Prmt5 inhibitor; b) Indisulam, a Rbm39 inhibitor; c) Herboxidiene; d) Pladienolide B.
The plates were read at 490 nm in Tecan Infinite M200 and the responses were analyzed using Graph Pad Prism.
After 72 hours, the incubation was stopped and growth measured by MTS assay.

Ybx1 pS30 and pS34 = assay: Drug-perturbed phosphoproteome profiling of Ybx1 phosphosites; conditions: 10 μM for 1 hour, murine Jak2V617F BaF3
Excerpt: The size and colour of the dots are proportional to the phosphosite intensity, Z-scored (log 2 intensity).
The cells were lysed in Gmdcl buffer and processed as mentioned in the phospho-proteome sample preparation protocol.

[1] = tested on: primary human Jak2-mutated cells; assay: Phosphoproteome of primary patient samples after Jak-i exposure; conditions: in vitro and in vivo exposure, 2 hours
Method: In brief, peripheral blood samples from patients with Jak2 mutated myeloproliferative neoplasms were collected, granulocytes isolated, and treated with DMSO or Ruxolitinb 0.5 μM for 2 hours (either in vitro or in vivo). Cells were lysed and processed in 4% SDC buffer (4% SDC, 100 mM Tris pH8.5, 10 mM TCEP and 40 mM CAA), heated for 5 mins at 95° C. and cooled on ice for 15 min. Lysed samples were sonicated, heated again for 5 mins and BCA quantified. Approximately 350 μg of proteins were digested with LysC and Trypsin overnight at room temperature and phosphopeptides were enriched by TiO2 beads as described elsewhere.

[2] = Mus musculus, 72 h, in the presence of Ruxolitinib (0.5 μM), 72 hours, MTS
[3] = functional inhibitor alone, 72 hours, MTS
[4] = in the presence of Ruxolitinib (0.5 μM), 72 hours, MTS

Compound: CC(=O)N1CCC(Nc2cc(C(=O)NC[C@H](O)CN3CCc4ccccc4C3)ncn2)CC1 [GSK3326595]
- pIC50 (murine Jak2 V617F cells; Mus musculus, 72 h, functional inhibitor alone, 72 hours, MTS): 6.00
- pIC50 (murine Jak2 V617F cells; [2]): 8.40
- effect between the functional inhibitor and Ruxolitinib on cell growth inhibition (murine Jak2 V617F cells): synergistic effect

Compound: CO[C@H]([C@@H](C)[C@H]1O[C@]1(C)C[C@H](C)/C=C/C=C(\C)[C@H]1O[C@@H](CC(=O)O)CC[C@@H]1C)[C@@H](C)O [Herboxidiene]
- effect between the functional inhibitor and Ruxolitinib on cell growth inhibition (murine Jak2 V617F cells): synergistic effect
- pIC50 (murine Jak2 V617F cells; [3]): ~7.80
- pIC50 (murine Jak2 V617F cells; [4]): ~8.10

Compound: NS(=O)(=O)c1ccc(S(=O)(=O)Nc2cccc3c(Cl)c[nH]c23)cc1 [Indisulam]
- pIC50 (murine Jak2 V617F cells; [2]): 6.30
- effect between the functional inhibitor and Ruxolitinib on cell growth inhibition (murine Jak2 V617F cells): synergistic effect
- 50% inhibition of cell growth reached or not (murine Jak2 V617F cells; [3]): not able to reach a 50% inhibition of cell growth

Compound: O=C(NOC[C@H](O)CO)c1ccc(F)c(F)c1Nc1ccc(I)cc1F [PD0325901]
- Ybx1 phosphorylation at pS30 and pS34 (Ybx1 pS30 and pS34): responsive; also recorded: able to inhibit

Compound: N#CC[C@H](C1CCCC1)n1cc(-c2ncnc3[nH]ccc23)cn1 [Ruxolitinib]
- phosphosites significantly altered [1]: 618 phosphosites

Compound: Pladienolide B
- effect between the functional inhibitor and Ruxolitinib on cell growth inhibition (murine Jak2 V617F cells): synergistic effect
- pIC50 (murine Jak2 V617F cells; [3]): ~7.82
- pIC50 (murine Jak2 V617F cells; [4]): ~8.15
